Patent publication US20150175530A1, “ANTIBACTERIAL AGENTS” (priority 2012, published 2015)
Converted amounts (≈) assume the structure as drawn. Where two headings read alike, the source gives them in different places.

How the values were obtained:
[1] = system: bacterial isolates (clinical isolates and ATCC quality control strains); assay: Minimum Inhibitory Concentrations (MICs) by broth microdilution (CLSI susceptibility testing); type: cell-based
Protocol: Bacterial isolates were cultivated from −70° C. frozen stocks by overnight passages at 35° C. in ambient air on Mueller-Hinton agar (Beckton Dickinson, Franklin Lakes, N.J.). Clinical isolates tested were obtained from various geographically diverse hospitals in the US and abroad (Focus Diagnostics, Herndon, Va. and JMI, North Liberty, Iowa). Quality control strains were from the American Type Culture Collection (ATCC; Rockville, Md.).
Minimum Inhibitory Concentrations (MICs) were determined by the broth microdilution method in accordance with the Clinical and Laboratory Standards Institute (CLSI) guidelines. In brief, organism suspensions were adjusted to a 0.5 McFarland standard to yield a final inoculum between 3×10^5 and 7×10^5 colony-forming units (CFU)/mL. Drug dilutions and inocula were made in sterile, cation adjusted Mueller-Hinton Broth (Beckton Dickinson). An inoculum volume of 100 μL was added to wells containing 100 μL of broth with 2-fold serial dilutions of drug. All inoculated microdilution trays were incubated in ambient air at 35° C. for 18-24 h. Following incubation, the lowest concentration of the drug that prevented visible growth (OD600 nm<0.05) was recorded as the MIC. Performance of the assay was monitored by the use of laboratory quality-control strains and levofloxacin, a compound with a defined MIC spectrum, in accordance with CLSI guidelines.

[2] = system: 3 P. aeruginosa strains (APAE001, APAE002, APAE006); assay: Protein binding: fold change in MIC in the presence of 2% HSA and 0.05% AGP, Geomean of 3 strains; type: cell-based, Pseudomonas aeruginosa; conditions: MIC in the presence of 2% HSA and 0.05% AGP divided by MIC in the absence; Geomean of 3 P. aeruginosa strains (APAE001, APAE002, APAE006)
Protocol: The effect of human serum albumin (HSA) and α-1-acid glycoprotein (AGP) from human plasma, which are known to nonspecifically bind to certain antibiotics and thereby reduce their activity (Banéres-Roquet et al. 2009 “Use of a Surface Plasmon Resonance Method to Investigate Antibiotic and Plasma Protein Interactions” Antimicrob. Agents and Chemother. 53(4):1528-1531), was assessed against 3 P. aeruginosa strains (APAE001, APAE002, APAE006). APAE001 is Pseudomonas aeruginosa ATCC27853; APAE002 is a wildtype lab strain of Pseudomonas aeruginosa known as PAM1020 or PA01. APAE006 is a strain of […]/PA01 with efflux deletions: delta mexAB-oprM::CM delta CD-oprJ::Gm delta mexEF-oprN::omega Hg. Lomovskaya, 0 et al. 1999. Use of a Genetic Approach To Evaluate the Consequences of Inhibition of Efflux Pumps in P aeruginosa. Antimicrob. Agents Chemother. 43: 1340-1346.
The standard procedure described in Susceptibility Testing was utilized with one adjustment, specifically 2% HSA and 0.05% AGP were added to the cation adjusted Mueller-Hinton Broth. The MIC for each strain of interest was then assessed in the presence and absence of HSA/AGP. Following MIC determination, the fold change in MIC was determined for each individual strain by dividing the MIC in the presence of HSA/AGP by the MIC in the absence of HSA/AGP. The protein binding Geomean was then calculated using these 3 values.

[3] = APAE1096 is a clinical isolate, broth microdilution, read-out: Minimum Inhibitory Concentrations (MICs) APAE1096
[4] = Pseudomonas aeruginosa, APAE002 is a wildtype lab strain of Pseudomonas aeruginosa known as PAM1020 or PA01, broth microdilution, read-out: Minimum Inhibitory Concentrations (MICs) APAE002
[5] = Pseudomonas aeruginosa, ATCC27853, APAE001 is Pseudomonas aeruginosa ATCC27853, broth microdilution, read-out: Minimum Inhibitory Concentrations (MICs) APAE001
[6] = Pseudomonas aeruginosa, ATCC27853, read-out: Minimum Inhibitory Concentrations (MICs) APAE001
[7] = Pseudomonas aeruginosa, read-out: Minimum Inhibitory Concentrations (MICs) APAE002
[8] = read-out: Minimum Inhibitory Concentrations (MICs) APAE1096

| Compound | MIC [1, 3] [µg/mL] | MIC [1, 4] [µg/mL] | MIC [1, 5] [µg/mL] | Protein Binding PB (Geomean of fold change in MIC) [2] | MIC [1, 6] [µg/mL] | MIC [1, 7] [µg/mL] | MIC [1, 8] [µg/mL] |
| --- | --- | --- | --- | --- | --- | --- | --- |
| CC(C)(N)[C@H](NC(=O)c1ccc(C#CC#C[C@H]2[C@@H](CO)[C@H]2CO)cc1)C(=O)NO [Compound 23B, N—((S)-3-amino-1-(hydroxyamino)-3-methyl-1-oxobutan-2-yl)-4-(((1R,2R,3S)-2,3-bis(hydroxymethyl)cyclopropyl)buta-1,3-diynyl)benzamide] | 8 to 16 (≈ 20 to 40.1 µM) | 1 to 8 (≈ 2.5 to 20 µM) | 1 to 8 (≈ 2.5 to 20 µM) | 2.0 | – | – | – |
| CC(C)(N)[C@H](NC(=O)c1ccc(C#CC#C[C@H]2CC2(CO)CO)cc1)C(=O)NO [Compound 24, N—((S)-3-amino-1-(hydroxyamino)-3-methyl-1-oxobutan-2-yl)-4-(((R)-2,2-bis(hydroxymethyl)cyclopropyl)buta-1,3-diynyl)benzamide] | 1 to 8 (≈ 2.5 to 20 µM) | 1 to 8 (≈ 2.5 to 20 µM) | 1 to 8 (≈ 2.5 to 20 µM) | 2.5 | – | – | – |
| CC(C)(N)[C@H](NC(=O)c1ccc(C#CC#CC(O)C2CC2CO)cc1)C(=O)NO (stereo partly drawn) [Compound 26, N—((S)-3-amino-1-(hydroxyamino)-3-methyl-1-oxobutan-2-yl)-4-(5-hydroxy-5-(2-(hydroxymethyl)cyclopropyl)penta-1,3-diynyl)benzamide] | 1 to 8 (≈ 2.5 to 20 µM) | < 1 | < 1 | 6.4 | – | – | – |
| CC(C)(N)[C@H](NC(=O)c1ccc(C#CC#C[C@]2(O)C[C@@H](CO)C2)cc1)C(=O)NO [Compound 27, N—((S)-3-amino-1-(hydroxyamino)-3-methyl-1-oxobutan-2-yl)-4-(((1S,3R)-1-hydroxy-3-(hydroxymethyl)cyclobutyl)buta-1,3-diynyl)benzamide] | 1 to 8 (≈ 2.5 to 20 µM) | < 1 | < 1 | 1.8 | – | – | – |
| CC(C)(N)[C@H](NC(=O)c1ccc(C#CC#CC[C@]2(O)C[C@@H](CO)C2)cc1)C(=O)NO [Compound 28, N—((S)-3-amino-1-(hydroxyamino)-3-methyl-1-oxobutan-2-yl)-4-(5-((1S,3S)-1-hydroxy-3-(hydroxymethyl)cyclobutyl)penta-1,3-diyn-1-yl)benzamide] | > 16 | 1 to 8 (≈ 2.42 to 19.3 µM) | 1 to 8 (≈ 2.42 to 19.3 µM) | 1.3 | – | – | – |
| CC(C)(N)[C@H](NC(=O)c1ccc(C#CC#C[C@H]2C[C@@](O)(CO)C2)cc1)C(=O)NO [Compound 29, N—((S)-3-amino-1-(hydroxyamino)-3-methyl-1-oxobutan-2-yl)-4-(((1R,3S)-3-hydroxy-3-(hydroxymethyl)cyclobutyl)buta-1,3-diynyl)benzamide] | 1 to 8 (≈ 2.5 to 20 µM) | < 1 | < 1 | 2.9 | – | – | – |
| CC(C)(N)[C@H](NC(=O)c1ccc(C#CC#C[C@@H]2C[C@@H](O)[C@@H](O)C2)cc1)C(=O)NO [Compound 32, N—((S)-3-amino-1-(hydroxyamino)-3-methyl-1-oxobutan-2-yl)-4-(((1S,3R,4S)-3,4-dihydroxycyclopentyl)buta-1,3-diynyl)benzamide] | 1 to 8 (≈ 2.5 to 20 µM) | < 1 | < 1 | 5.5 | – | – | – |
| CC(C)(N)[C@H](NC(=O)c1ccc(C#CC#C[C@H]2CC[C@@](O)(CO)CC2)cc1)C(=O)NO [Compound 33A, N—((S)-3-amino-1-(hydroxyamino)-3-methyl-1-oxobutan-2-yl)-4-(((1S,4R)-4-hydroxy-4-(hydroxymethyl)cyclohexyl)buta-1,3-diynyl)benzamide] | 8 to 16 (≈ 18.7 to 37.4 µM) | < 1 | 1 to 8 (≈ 2.34 to 18.7 µM) | 2.6 | – | – | – |
| CC(C)(N)[C@H](NC(=O)c1ccc(C#CC#C[C@H]2CC[C@](O)(CO)CC2)cc1)C(=O)NO [Compound 33B, N—((S)-3-amino-1-(hydroxyamino)-3-methyl-1-oxobutan-2-yl)-4-(((1R,4S)-4-hydroxy-4-(hydroxymethyl)cyclohexyl)buta-1,3-diynyl)benzamide] | 1 to 8 (≈ 2.34 to 18.7 µM) | 1 to 8 (≈ 2.34 to 18.7 µM) | < 1 | 5.1 | – | – | – |
| CC(C)(O)[C@H](NC(=O)c1ccc(C#CC#CCCO)cc1)C(=O)NO [Compound 34, (S)—N-(3-hydroxy-1-(hydroxyamino)-3-methyl-1-oxobutan-2-yl)-4-(6-hydroxyhexa-1,3-diynyl)benzamide] | 1 to 8 (≈ 2.9 to 23.2 µM) | < 1 | < 1 | 2.8 | – | – | – |
| C[C@@H](N)[C@H](NC(=O)c1ccc(C#CC#CCCO)cc1)C(=O)NO [Compound 35, N-((2S,3R)-3-amino-1-(hydroxyamino)-1-oxobutan-2-yl)-4-(6-hydroxyhexa-1,3-diyn-1-yl)benzamide] | 1 to 8 (≈ 3.04 to 24.3 µM) | < 1 | < 1 | 2.0 | – | – | – |
| CC(C)(N)[C@H](NC(=O)c1ccc(C#CC#CC[C@H](O)CO)cc1)C(=O)NO [Compound 36, N—((S)-3-amino-1-(hydroxyamino)-3-methyl-1-oxobutan-2-yl)-4-((S)-6,7-dihydroxyhepta-1,3-diyn-1-yl)benzamide] | – | – | – | 2.3 | < 1 | < 1 | 1 to 8 (≈ 2.68 to 21.4 µM) |
| CC(C)(N)[C@H](NC(=O)c1ccc(C#CC#CC[C@@H](O)CO)cc1)C(=O)NO [Compound 37, N—((S)-3-amino-1-(hydroxyamino)-3-methyl-1-oxobutan-2-yl)-4-((R)-6,7-dihydroxyhepta-1,3-diyn-1-yl)benzamide] | – | – | – | 1.4 | 1 to 8 (≈ 2.68 to 21.4 µM) | 1 to 8 (≈ 2.68 to 21.4 µM) | 1 to 8 (≈ 2.68 to 21.4 µM) |
| C[C@@H](O)[C@H](NC(=O)c1ccc(C#CC#CCCO)cc1)C(=O)NO [Compound 38, N-((2S,3R)-3-hydroxy-1-(hydroxyamino)-1-oxobutan-2-yl)-4-(6-hydroxyhexa-1,3-diyn-1-yl)benzamide] | 1 to 8 (≈ 3.03 to 24.2 µM) | < 1 | 1 to 8 (≈ 3.03 to 24.2 µM) | 2 | – | – | – |
| CC(C#CC#Cc1ccc(C(=O)N[C@H](C(=O)NO)C(C)(C)N)cc1)CO (stereo partly drawn) [Compound 39, N—((S)-3-amino-1-(hydroxyamino)-3-methyl-1-oxobutan-2-yl)-4-(6-hydroxy-5-methylhexa-1,3-diyn-1-yl)benzamide] | 1 to 8 (≈ 2.8 to 22.4 µM) | < 1 | < 1 | 2.8 | – | – | – |
| C[C@H](O)C#CC#Cc1ccc(C(=O)N[C@H](C(=O)NO)C(C)(C)O)cc1 [Compound 40, N—((S)-3-hydroxy-1-(hydroxyamino)-3-methyl-1-oxobutan-2-yl)-4-((S)-5-hydroxyhexa-1,3-diyn-1-yl)benzamide] | 1 to 8 (≈ 2.9 to 23.2 µM) | < 1 | 1 to 8 (≈ 2.9 to 23.2 µM) | 2.6 | – | – | – |
| C[C@H](O)C#CC#Cc1ccc(C(=O)N[C@H](C(=O)NO)[C@@H](C)N)cc1 [Compound 41, N-((2S,3R)-3-amino-1-(hydroxyamino)-1-oxobutan-2-yl)-4-((S)-5-hydroxyhexa-1,3-diyn-1-yl)benzamide] | 1 to 8 (≈ 3.04 to 24.3 µM) | < 1 | < 1 | 2 | – | – | – |
| C[C@H](O)C#CC#Cc1ccc(C(=O)N[C@H](C(=O)NO)[C@@H](C)O)cc1 [Compound 42, N-((2S,3R)-3-hydroxy-1-(hydroxyamino)-1-oxobutan-2-yl)-4-((S)-5-hydroxyhexa-1,3-diyn-1-yl)benzamide] | 8 to 16 (≈ 24.2 to 48.4 µM) | 1 to 8 (≈ 3.03 to 24.2 µM) | 1 to 8 (≈ 3.03 to 24.2 µM) | 2.6 | – | – | – |
